{"source": "paper PMC3797794", "about": "“Identification and Characterization of a Novel Trehalose Synthase Gene Derived from Saline-Alkali Soil Metagenomes” (PLoS ONE, 2013)", "system": "T1, TreS (recombinant trehalose synthase)", "T1 construct": "pET-22b(+), E. coli BL21(DE3), Ni-NTA; His6 tag kept (C-terminal per Methods, N-terminal with 13 extra residues per Results)", "assay": "HPLC-RID of sugars, Lineweaver-Burk", "format": "biochemical, uncultured bacterium", "details": "pH 9.0, 45 °C, 30 min, 200 mM sodium phosphate"}
{"molecule": "OC[C@H]1O[C@H](O[C@H]2O[C@H](CO)[C@@H](O)[C@H](O)[C@H]2O)[C@H](O)[C@@H](O)[C@@H]1O", "note": "[trehalose]", "values": [{"measurement": "Km", "value": "64 ± 3.5", "unit": "mM"}]}
{"molecule": "OC[C@H]1O[C@H](O[C@H]2[C@H](O)[C@@H](O)C(O)O[C@@H]2CO)[C@H](O)[C@@H](O)[C@@H]1O", "note": "(some centres unmarked) [maltose]", "values": [{"measurement": "Km", "value": "9 ± 1.2", "unit": "mM"}]}
